How the values were obtained:
[1] = molecular target: T1, endogenous AT1R (Rattus norvegicus, UniProt P25095); experiment: Rho BRET sensor in rat primary VSMC with endogenous AT1R; type: cell-based; details: for Emax Rho in VSMCs (% AngII): Rho sensor, for 12 and TRV027 response at 10 μM; for EC50: adenoviral Rho BRET sensor, 1 min 30 s stimulation, mean ± SEM of at least three to five independent experiments, read-out: EC50 Rho in VSMCs
T1 construct: expressing low levels of endogenous AT1R; endogenous in cells; host or cells: rat primary VSMC, passages 13-15
T1 sequence (P25095 1-359): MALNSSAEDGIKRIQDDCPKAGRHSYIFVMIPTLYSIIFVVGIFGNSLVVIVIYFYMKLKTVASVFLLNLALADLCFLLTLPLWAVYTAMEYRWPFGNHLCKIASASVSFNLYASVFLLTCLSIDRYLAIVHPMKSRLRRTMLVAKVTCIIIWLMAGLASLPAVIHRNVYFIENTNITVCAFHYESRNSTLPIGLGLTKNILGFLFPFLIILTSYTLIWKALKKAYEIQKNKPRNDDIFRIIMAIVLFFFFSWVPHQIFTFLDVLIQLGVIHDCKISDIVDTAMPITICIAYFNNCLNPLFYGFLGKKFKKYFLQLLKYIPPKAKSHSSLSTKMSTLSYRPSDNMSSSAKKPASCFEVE
Excerpt: (§1) We next assessed the analogs’ ability to engage Gαq by assessing either the PKC or Rho responses in rat primary vascular smooth muscle cell (VSMC) culture, expressing low levels of endogenous AT1R (between 25–50 fmol/mg) (Figure 4, Table 6).
(§2) The coding regions of the PKC-c1b sensor, PKN-RBD-RlucII, and rGFPcaax were PCR-amplified and subcloned into the KpnI/XhoI sites of the pENTR3C vector (Invitrogen), respectively. These were then transferred into the adenoviral expression vector pAd/CMV/V5-DEST (Invitrogen), via gateway cloning (pAD-CMV-PKC-c1b, pAD-CMV-PKN-RBD-RLucII, and pAD-CMV-rGFPcaax). Viruses containing the sensor codes were generated following a previously outlined process.[49] […] The following day, cells were transfected with 4 µg of PacI-digested pAd5-CMVsensors using Lipofectamine 2000 (Invitrogen). After 7–10 days post-transfection, mature virus particles were gleaned via the collection of cells and media, which then underwent multiple cycles of freezing and thawing, followed by centrifugation. The harvested virus was amplified by re-infection on 100-mm dishes of confluent HEK293A cells, and harvested 48-72 h later. Viral titers were determined by serial dilution of adenovirus stock and subsequent infection of HEK293A cells in 96-well plates. 36 h after infection, cells were stained using an anti-hexon antibody (ab8249; Abcam), and hexon-expressing cells were tallied via fluorescence microscopy. The virus was then stored at −80°C. After this, rat VSMCs (between the 13th to 15th passages) were seeded at a density of 20,000 cells in each well of white 96-well plates 24 h before transduction with the viral vector. The cells were then transduced with the PKC sensor-adenovirus (3 μL per well) or Rho sensor (1 μL each per well of PKN-RBD-RLucII-adnovirus and rGFP-caax adenovirus). After 24 h, the medium was replaced. 48 h post-viral transduction, the cells were thoroughly washed with Tyrode’s buffer. Finally, BRET assays were carried out as detailed below.
(§3) On the day of the experiment, each well was washed with 80 µL of Tyrode’s buffer (140 mM NaCl, 2.7 mM KCl, 1 mM CaCl2, 12 mM NaHCO3, 5.6 mM D-glucose, 0.5 mM MgCl2, 0.37 mM NaH2PO4, 25 mM Hepes (pH 7.4)). This was followed by incubation for 1 h in Tyrode’s buffer at room temperature. For the Gαq, β-arrestin-2, and PKC biosensors used in HEK293 cells, coelenterazine 400A (at a final concentration of 5 μM) was added 10 min before stimulation. Cells were then stimulated with increasing doses of the indicated ligand, and BRET signals were measured using a Tristar2 (Berthold) microplate reader 10 min later. For the PKC and Rho biosensors in VSMCs, and the Rho biosensor in ΔG12/13 cells, cells were similarly stimulated with ligands for 1 min, 1 min 30 s, and 3 min, respectively, before BRET measurement. […] BRET signals were then measured using a Synergy2 (BioTek) microplate reader. The applied filter set was 410/80 nm and 515/30 nm, designed to detect the light emissions of RlucII (Renilla luciferase) (donor) and rGFP (acceptor), respectively.

[2] = molecular target: T1, endogenous AT1R; experiment: PKC BRET sensor in rat primary VSMC with endogenous AT1R; type: cell-based; details: for Emax PKC in VSMCs (% AngII): PKC sensor, for 12 and TRV027 response at 10 μM; for EC50: adenoviral PKC BRET sensor, 1 min stimulation, mean ± SEM of at least three to five independent experiments, read-out: EC50 PKC in VSMCs
Excerpt: as §1, §2, §3

Row | Compound | Emax Rho in VSMCs (% AngII) [1] | EC50 ([1]; SEM) | Emax PKC in VSMCs (% AngII) [2] | EC50 ([2]; SEM) | EC50 [1] | EC50 [2]
1 | CC[C@H](C)[C@H](NC(=O)[C@H](Cc1ccc(O)cc1)NC(=O)[C@@H](NC(=O)[C@H](CCCNC(=N)N)NC(=O)[C@@H](N)CC(=O)O)C(C)C)C(=O)N[C@@H](Cc1c[nH]cn1)C(=O)N1CCC[C@H]1C(=O)N[C@@H](Cc1ccc(OC)cc1)C(=O)O [compound 11] | 92 % AngII | 39.1 ± 11 nM | 104 % AngII | 79.8 ± 17.7 nM | – | –
2 | CC[C@H](C)[C@H](NC(=O)[C@H](Cc1ccc(O)cc1)NC(=O)[C@@H](NC(=O)[C@H](CCCNC(=N)N)NC(=O)[C@@H](N)CC(=O)O)C(C)C)C(=O)N[C@@H](Cc1c[nH]cn1)C(=O)N1CCC[C@H]1C(=O)N[C@@H](Cc1ccc(OCc2ccccc2)cc1)C(=O)O [compound 12] | 12 % AngII | – | 13 % AngII | – | > 10000 nM | > 10000 nM

Reference: publication doi:10.1101/2025.08.13.670122v1 (bioRxiv, 2025)
